Measured values reported in the METLIN SMRT retention time set (Domingo-Almenara et al. 2019).

Assay: gradient 5% acetonitrile 3 min, to 50% in 2 min, to 85% in 15 min, held 3 min, 100 µL/min
Details: column: Zorbax Extend-C18 2.1 x 50 mm; eluents: water / acetonitrile, 0.1% formic acid
Outline: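 Mixtures of ~100 pure standards were chromatographed on a Zorbax Extend-C18 column (2.1 × 50 mm, 1.8 μm) at 100 μL/min using water and acetonitrile, each with 0.1% formic acid. Detection used a quadrupole time-of-flight mass spectrometer in positive and negative ionization mode, and data collection spanned 3 months. Retention time was obtained from adduct peaks picked computationally and each checked manually.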

| Compound | RP-LC retention time [s] |
| --- | --- |
| Cc1nc(-c2csc(S(=O)(=O)N3CCC(C(=O)Nc4ccc(F)cc4Cl)CC3)c2)no1 | 1010 |
| COc1ccc(-c2csc(Nc3cccnc3)n2)cc1 | 656 |
| COC(=O)c1c(C)c(C(=O)C(C)N(C(=O)c2ccccc2Cl)C(C)C)c(C)n1C (stereo unspecified) | 975 |
| CCOCCCNC(=O)N1CCCC(C)(C(=O)NCc2ccc(C)cc2)C1 (stereo unspecified) | 740 |
| CC1=C(c2ccc(Cl)cc2)S(=O)(=O)N=C1N1CCC(NC(=O)C2CCOC2)CC1 (stereo unspecified) | 733 |
| Cc1cccc(NC(=O)NCC(O)Cc2ccccc2)c1 (stereo unspecified) | 734 |
| CCn1ccc2c(cc(C(=O)Nc3ccc(C(C)C)cc3)n2C)c1=O | 902 |
| CC(Oc1cccc(Cl)c1)C(=O)Nc1ccc2c(c1)Sc1ncccc1C(=O)N2C (stereo unspecified) | 911 |
| CCCn1cc(CCNC(=O)c2cc(F)ccc2Cl)c2cccnc21 | 795 |
| COCCn1nnnc1C1CC2(CCOCC2)C(=O)N1CCc1ccc(Cl)cc1 (stereo unspecified) | 880 |
| Cc1ccc(-c2nc3cnccn3c2Nc2ccc(F)cc2)cc1 | 904 |
| Cc1nnc(-c2cc(C)n(CC(=O)Nc3ccc(Br)cc3)c2C)o1 | 836 |
| Cc1ccc(OCC(=O)NCc2ccc(F)cc2)nn1 | 607 |
| Cc1ccc(-c2nnc(-c3nn(C)c4c3CN(S(=O)(=O)c3ccc(Cl)cc3)CC4)o2)cc1 | 1070 |
| CCn1cc(CCNC(=O)Nc2ccc3c(c2)OCO3)c2cccnc21 | 672 |
| Cc1ccc(NC(=O)CCCN2C(=O)COc3ccc(C)cc32)c(C)c1 | 929 |
| O=C(c1cc(-c2ccncc2)n[nH]1)N1CCN(C(=O)c2cccc3[nH]ccc23)CC1 | 571 |
| Cc1noc(-c2ccc(OC3CN(C(=O)Nc4cccc(F)c4)C3)cc2)n1 | 838 |
| Cc1ccc2[nH]c(C(=O)NCc3ccncc3)cc2c1 | 628 |
| COc1cc(CN(C)C2CCc3nnc(C4CCOCC4)n3CC2)cc(OC)c1 (stereo unspecified) | 544 |
| CCC1CN(C(=O)N2CCC(C(=O)NCCN3CCN(C)CC3)CC2)c2cc(C)ccc2O1 (stereo unspecified) | 619 |
| Cc1ccc(Nc2nc(-c3ccc(C)c(C)c3)cs2)nc1 | 859 |

| Compound | RP-LC retention time [s] |
| --- | --- |
| COc1ccc2[nH]cc(CCNC(=O)c3cc(S(=O)(=O)N4CCSCC4)ccc3Cl)c2c1 | 880 |
| COCCN1CCC2(CC1)CN(Cc1ccc(Cl)c(F)c1)Cc1ccccc1O2 | 751 |
| COCCC(=O)NCCC1CCN(C(=O)Nc2cc(F)cc(F)c2)CC1 | 695 |
| Cc1cccc(NC(=O)N2CC(F)(F)C[C@H]2CN2CCCC2)c1C | 647 |
| COc1cccc2cc(C(=O)Nc3nc(-c4ccc(Cl)cc4)cs3)c(=O)oc12 | 1290 |
| COc1ccc(Nc2c(-c3ccc(N(C)C)cc3)nc3cnccn23)cc1 | 740 |
| O=C(c1ccoc1)N1CCOc2ccc(N3CCOCC3)cc2C1 | 678 |
| CS(=O)(=O)N1CCC(C(=O)Nc2ccc(C(F)(F)F)cc2)Oc2ccc(Cl)cc21 (stereo unspecified) | 1060 |
| C[C@]12CC[C@H](O)CC1=CCC1C2CC[C@]2(C)C(n3cnc4ccccc43)=CCC12 (stereo partly specified) | 948 |
| CC(Oc1ccc(C(C)(C)C)cc1)C(=O)Nc1ccnn1Cc1ccco1 (stereo unspecified) | 1020 |
| Cc1ccc(Nc2c(-c3ccc(N(C)C)cc3)nc3ncccn23)cc1C | 792 |
| Cc1c(-c2noc(-c3ccc4cc[nH]c4c3)n2)nnn1Cc1ccccc1 | 1010 |
| O=S(=O)(c1cccn2cnnc12)N(Cc1cccc(F)c1)c1ccc(F)c(F)c1 | 866 |
| COc1cc(OC)c(NC(=O)N2CCC3(C2)c2nc[nH]c2CCN3C)cc1Cl (stereo unspecified) | 569 |
| O=C(NC1CC1)c1csc(N2CCCCC2)n1 | 853 |
| CN1CCCc2cc(C(CNC(=O)C(=O)Nc3ccc4c(c3)OCCO4)N3CCCCC3)ccc21 (stereo unspecified) | 742 |
| Cc1ccc(NC(=O)c2c(O)c3cccnc3n(-c3ccc(F)cc3)c2=O)c(C)c1 | 1320 |
| COc1ccc(OC)c(S(=O)(=O)N2CCCC(C(=O)NCCC(C)C)C2)c1 (stereo unspecified) | 863 |
| COc1ccc(OC)c(NC2=NS(=O)(=O)C(c3ccc(F)cc3)=C2C)c1 | 880 |
| CC(C)(C)C1CCC2(CC1)CCN(CCCN1CCOCC1)CC2 | 619 |
| Cc1cccc(OCc2nc(-c3ccc4nnn(C)c4c3)no2)c1 | 985 |

More lines, now with the values ahead:

| RP-LC retention time [s] | Compound |
| --- | --- |
| 1080 | CN1C(=O)C(C)(C)N(Cc2ccccc2)c2ccccc21 |
| 721 | CC(C)n1cnc(S(=O)(=O)N2CCC(C(=O)Nc3ccc4c(c3)OCCO4)CC2)c1 |
| 764 | CN1C(=O)C2(CCN(C(=O)c3ccc(F)cc3)C2)c2ccccc21 (stereo unspecified) |
| 703 | CC(C)c1ccc(Sc2ccc(N3CCC(C(=O)NCCCO)CC3)nn2)cc1 |
| 597 | Cc1nc(Nc2ccccn2)sc1C(=O)N1CCN(C2CCCCC2)CC1 |
| 885 | CCOc1ccc(S(=O)(=O)N2CCCN(c3ccc(=O)n(-c4ccc(F)cc4)n3)CC2)cc1 |
| 618 | COCCCNC(=O)Cc1c(C)n(C)c2nc(-c3ccccc3)nn2c1=O |
| 670 | COCc1noc(C2CN(CCc3ccccc3)CC23CCCC3)n1 (stereo unspecified) |
| 894 | Cc1ccc(NC(=O)C2CCN(S(C)(=O)=O)c3ccccc3O2)c(C)c1 (stereo unspecified) |
| 739 | COc1cccc(CNC(=O)N2CCC3(CC2)NC(=O)c2ccccc2O3)c1 |
| 1120 | Cc1c(C(=O)N2CCCC(C)C2)cnn1-c1ccc(-c2nc(C(C)C)no2)cn1 (stereo unspecified) |
| 859 | Cc1nn2c(CNS(=O)(=O)c3ccc(F)cc3)c(-c3ccccc3)nc2s1 |
| 717 | COc1ccccc1CNC(=O)C1CCN(c2cc(N3CCSCC3)ncn2)CC1 |
| 742 | CC1CCCN(c2ccn3c(=O)n(CC(=O)N(C)c4ccccc4)nc3n2)C1 (stereo unspecified) |
| 758 | CCOc1ccc(-c2nc3ncccn3c2NCc2ccccc2)cc1 |
| 1020 | O=C(C1COc2ccccc2O1)N(CCc1cccs1)Cc1ccco1 (stereo unspecified) |
| 647 | Nc1cc(C2CCN(C(=O)c3nccc4ccccc34)CC2)no1 |
| 570 | CCNc1cc(N2CCC(CCC(=O)NCCc3cccs3)CC2)ncn1 |
| 764 | O=C(Nc1ccc(Cl)cc1)N1CCC(N2CCN(Cc3ccccc3)C(=O)C2=O)CC1 |
| 596 | COC(=O)CNC(=O)Nc1ncc(-c2ccccc2)n1C |
| 832 | CCc1noc2nc(C)n(CC(=O)NCc3ccccc3OC)c(=O)c12 |
| 1120 | COc1cc(OC)c(NC(=O)N2c3ccccc3CC2c2nc(C3CC3)no2)cc1Cl (stereo unspecified) |
| 996 | CC(=O)c1ccc(NC(=O)CN2C(=O)C3CCCCN3c3ccc(C(=O)N4CCCC4)cc32)cc1 (stereo unspecified) |
| 719 | Cc1ccc(C(=O)NCc2nc(-c3ccc4c(c3)ncn4C3CCCC3)no2)cc1 |

| RP-LC retention time [s] | Compound |
| --- | --- |
| 784 | CC(C)NC(=O)c1cc(N2CCCC2)n2nccc2n1 |
| 801 | Cc1cc(C(=O)NCC(O)c2cccc3ccccc23)c(C)o1 (stereo unspecified) |
| 744 | CCOC(=O)c1ccc(NS(=O)(=O)c2cc3n(c2)CCN(CC)C3=O)cc1 |
| 640 | CC1CCCN(C(=O)c2ccc3ncnc(N4CCCC4)c3c2)C1 (stereo unspecified) |
| 1230 | CCN(C(=O)c1ccccc1)c1nc(-c2ccccc2)cs1 |
| 636 | Cn1nc(C(=O)N2C[C@@H]3C[C@H](NC(=O)c4cccnc4)[C@H]2C3)c2ccccc21 |
| 635 | Cc1cc(=O)n(CC(=O)Nc2ccc(F)cc2)c(N2CCCCC2)n1 |
| 683 | O=C(C1CCN(Cc2cc3ccccc3n2Cc2ccccc2)CC1)N1CCOCC1 |
| 1140 | COc1ccccc1C(=O)Nc1cccn2nc(C3CCC3)nc12 |
| 752 | Cc1noc2nc(C)n(CC(=O)NCCc3ccccc3)c(=O)c12 |
| 876 | Cc1cccc(CNC(=O)C2(C)Oc3cccnc3N(C)C2=O)c1 (stereo unspecified) |
| 698 | Cc1cc(C)n(CCC(=O)NCC23CCC=C2N(CC2CC2)C(=O)CC3)n1 (stereo unspecified) |
| 887 | COCCCNC(=O)Cn1nc(C)c2nn(-c3ccc(Cl)cc3)c(-n3cccc3)c2c1=O |
| 588 | O=C(c1cc(-c2ccncc2)n[nH]1)N1CCN(C(=O)C2CCCC2)CC1 |
| 884 | COC(=O)c1ccccc1NC(=O)Cn1ccn2nc(-c3ccccc3)c(CO)c2c1=O |
| 754 | COc1ccccc1NC(=O)N1CCC2(CC1)NC(=O)c1cccc(Cl)c1N2 |
| 793 | Cn1c(=O)c(N2CCN(C(=O)c3cccs3)CC2)nc2cccnc21 |
| 711 | N#Cc1cnc2ccccc2c1N1CCC(C(=O)N2CCc3ccccc3C2)CC1 |
| 891 | O=C(c1cccc(Cl)c1)N1CCC(Cc2nnc(-c3ccccc3)o2)CC1 |
| 666 | O=C(Cn1nc2nc(N3CCOCC3)ccn2c1=O)Nc1ccc(F)c(F)c1 |
| 849 | CCN1c2ccc(C)cc2C(=O)NC12CCN(C(=O)c1cccc(C)c1)CC2 |
| 637 | CCc1cnn2c(NCc3ccc[n+]([O-])c3)cc(N3CCCC[C@H]3CCO)nc12 |
| 952 | O=C(Cc1csc2nc(-c3cccc(Br)c3)cn12)NC1CCCCC1 |
| 690 | CCN1C(=O)Cc2ccccc2C1C(=O)NCc1ccco1 (stereo unspecified) |
